Assay results reported in PubChem BioAssay AID192 (DTP/NCI, 2004).
“And” between values parts separate entries of the source, which are not always exact repeats. Equal entries are not always repeated. Inconclusive results and toxic doses are left out.

Tested on: BDF1 mice, B16 melanoma ip, median survival T/C
Assay: NCI In Vivo Anticancer Drug Screen. Data for tumor model B16 Melanoma (intraperitoneal) in B6D2F1 (BDF1) mice
Conditions: endpoint: median survival time, higher = longer survival
Procedure, shortened: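 The ratio T/C compares compound-treated mice with vehicle-treated controls, using survival or tumor size as the endpoint in a transplantable tumor model.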

[1] = dose: 6.25 mg/kg/injection, schedule: Q01DX009 (ip), vehicle: Klucel (hydroxypropylcellulose) (HPC)
[2] = dose: 12.5 mg/kg/injection, schedule: Q01DX009 (ip), vehicle: Klucel (hydroxypropylcellulose) (HPC)
[3] = dose: 25.0 mg/kg/injection, schedule: Q01DX009 (ip), vehicle: Klucel (hydroxypropylcellulose) (HPC)
[4] = dose: 50.0 mg/kg/injection, schedule: Q01DX009 (ip), vehicle: Klucel (hydroxypropylcellulose) (HPC)
[5] = dose: 100.0 mg/kg/injection, schedule: Q01DX009 (ip), vehicle: Klucel (hydroxypropylcellulose) (HPC)
[6] = dose: 200.0 mg/kg/injection, schedule: Q01DX009 (ip), vehicle: Klucel (hydroxypropylcellulose) (HPC)

In the case of `O=C1C=C(N2CC2)C(=O)C(N2CC2)=C1N1CC1`, the T/C (dose: 1.0 micrograms/kg/injection, schedule: Q01DX009 (ip), vehicle: saline) is reported as 111 % of control, the T/C (dose: 3.0 micrograms/kg/injection, schedule: Q01DX009 (ip), vehicle: saline) is reported as 109 % of control and the T/C (dose: 6.0 micrograms/kg/injection, schedule: Q01DX009 (ip), vehicle: saline) is reported as 109 % of control. For the same compound, the T/C (dose: 12.0 micrograms/kg/injection, schedule: Q01DX009 (ip), vehicle: saline) was 118 % of control.

In the case of `FC(F)(F)c1ccc2c(c1)N(CCCN1CCN(CC[n+]3ccccc3)CC1)c1ccccc1S2`, the T/C (dose: 1.25 mg/kg/injection, schedule: Q01DX009 (ip), vehicle: saline) is reported as 100 % of control, the T/C (dose: 2.5 mg/kg/injection, schedule: Q01DX009 (ip), vehicle: saline) is reported as 105 % of control and the T/C (dose: 5.0 mg/kg/injection, schedule: Q01DX009 (ip), vehicle: saline) is reported as 105 % of control and 107 % of control. For the same compound, the T/C (dose: 10.0 mg/kg/injection, schedule: Q01DX009 (ip), vehicle: saline) was 89 % of control and 97 % of control.

In the case of `Cc1ccccc1CN1CCN(CCOC(c2ccccc2)c2ccccc2Cl)CC1` (configuration not stated), the T/C (dose: 3.12 mg/kg/injection, schedule: Q01DX009 (ip), vehicle: Klucel (hydroxypropylcellulose) (HPC)) is reported as 93 % of control and 94 % of control, the T/C [1] is reported as 93 % of control and the T/C [2] is reported as 91 % of control and 100 % of control. The T/C [3] was 86 % of control and 89 % of control and the T/C [4] was 86 % of control.

With `C=C1CCN(c2ccccc2Cl)C1=O` the T/C (dose: 4.0 mg/kg/injection, schedule: Q01DX009 (ip), vehicle: saline + alcohol) was 104 % of control, the T/C (dose: 8.0 mg/kg/injection, schedule: Q01DX009 (ip), vehicle: saline + alcohol) was 98 % of control and the T/C (dose: 16.0 mg/kg/injection, schedule: Q01DX009 (ip), vehicle: saline + alcohol) was 101 % of control. The T/C (dose: 32.0 mg/kg/injection, schedule: Q01DX009 (ip), vehicle: saline + alcohol) was 121 % of control.

For `Cc1cc(C)c(NC(=O)Nc2ccc(Cl)cc2)c(C)c1`, the T/C [5] was 93 % of control and the T/C [6] was 93 % of control.

With `CC(C)CCCCCCCCCCCCC(=O)NCC(=O)NC1C(O)C(O)C(Nc2ncnc3nc[nH]c23)OC1C(O)CO` (configuration not stated) the T/C (dose: 0.25 mg/kg/injection, schedule: Q01DX009 (ip), vehicle: Klucel (hydroxypropylcellulose) (HPC)) was 114 % of control, the T/C (dose: 1.0 mg/kg/injection, schedule: Q01DX009 (ip), vehicle: saline) was 151 % of control and the T/C (dose: 62.5 micrograms/kg/injection, schedule: Q01DX009 (ip), vehicle: saline) was 98 % of control. The T/C (dose: 125.0 micrograms/kg/injection, schedule: Q01DX009 (ip), vehicle: saline) was 98 % of control, the T/C (dose: 250.0 micrograms/kg/injection, schedule: Q01DX009 (ip), vehicle: saline) was 98 % of control and the T/C (dose: 500.0 micrograms/kg/injection, schedule: Q01DX009 (ip), vehicle: saline) was 107 % of control.

In the case of `C=C/C(C)=C/[C@H](C)C(=O)C[C@H](O)CC1CC(=O)NC(=O)C1`, the T/C (dose: 6.25 mg/kg/injection, schedule: Q01DX009 (ip), vehicle: saline with Tween-80) is reported as 121 % of control, the T/C (dose: 12.5 mg/kg/injection, schedule: Q01DX009 (ip), vehicle: saline with Tween-80) is reported as 109 % of control and the T/C (dose: 25.0 mg/kg/injection, schedule: Q01DX009 (ip), vehicle: saline with Tween-80) is reported as 121 % of control. For the same compound, the T/C (dose: 100.0 mg/kg/injection, schedule: Q01DX009 (ip), vehicle: saline with Tween-80) was 121 % of control.

For `COc1cc2c(cc1OC)C13CCN4CC5=CCOC6CC(=O)N2C1C6C5CC43` (configuration not stated) (tested in a mixture with another compound), the T/C [3] was 103 % of control and the T/C [4] was 91 % of control.

`O=C1c2ccccc2C(=O)c2c(NCCSCCO)ccc(NCCSCCO)c21` was tested, and the T/C (dose: 16.0 mg/kg/injection, schedule: Q01DX009 (ip), vehicle: Klucel (hydroxypropylcellulose) (HPC)) was 94 % of control, the T/C (dose: 32.0 mg/kg/injection, schedule: Q01DX009 (ip), vehicle: Klucel (hydroxypropylcellulose) (HPC)) was 103 % of control and the T/C (dose: 64.0 mg/kg/injection, schedule: Q01DX009 (ip), vehicle: Klucel (hydroxypropylcellulose) (HPC)) was 96 % of control. The T/C (dose: 128.0 mg/kg/injection, schedule: Q01DX009 (ip), vehicle: Klucel (hydroxypropylcellulose) (HPC)) was 88 % of control and the T/C (dose: 256.0 mg/kg/injection, schedule: Q01DX009 (ip), vehicle: Klucel (hydroxypropylcellulose) (HPC)) was 87 % of control.

With `COc1cc(C(=O)c2cc3c(cc2C)OCO3)cc(OC)c1OC` the T/C [1] was 105 % of control, the T/C [2] was 97 % of control and 115 % of control and the T/C [3] was 98 % of control and 103 % of control. For the same compound, the T/C [4] was 101 % of control and 112 % of control, the T/C [5] was 109 % of control and the T/C [6] was 104 % of control.

For `Cn1c2c(sc1=O)CCC2`, the T/C [4] was 113 % of control, the T/C [5] was 100 % of control and the T/C [6] was 97 % of control.

With `CC1CCN(c2ccc([N+](=O)[O-])cc2)CC1` the T/C [5] was 106 % of control, the T/C [6] was 87 % of control and the T/C (dose: 400.0 mg/kg/injection, schedule: Q01DX009 (ip), vehicle: Klucel (hydroxypropylcellulose) (HPC)) was 96 % of control.

With `S=c1[nH]nc(NC2CCCCC2)s1` the T/C [3] was 97 % of control, the T/C [4] was 91 % of control and the T/C (dose: 100.0 mg/kg/injection, schedule: Q04DX003 (ip), vehicle: Klucel (hydroxypropylcellulose) (HPC)) was 97 % of control. For the same compound, the T/C (dose: 200.0 mg/kg/injection, schedule: Q04DX003 (ip), vehicle: Klucel (hydroxypropylcellulose) (HPC)) was 91 % of control.
